The values below come from patent US8765669B2, “Glycosylated GLP-1 peptide” (Glytech, Inc., priority 2008, dated 2014).

The target in data set [1] is T1, DPP-IV (dipeptidyl peptidase IV from porcine kidney) (Sus scrofa, UniProt P22411).
T1 construct: dipeptidyl peptidase IV from porcine kidney, product of SIGMA; purchased SIGMA; host or cells: porcine kidney (tissue-derived enzyme)
Nature of the data set: Test of resistance to dipeptidyl peptidase IV (DPP-IV). In kind it is in vitro ADME. As to conditions: half-life (t1/2) in DPP-IV solution at 37° C., GLP-1 of Comparative Example 1 defined as standard (=1). As for the experimental part:
Each solution mixture was adjusted with 100 mM sodium phosphate buffer to 100 μl in total and allowed to react at 37° C. A 10 μaliquot of the reaction solution was mixed with 15 μl of 10% trifluoroacetic acid prepared in advance in another Eppendorf tube.

The subject of another data set is C57BL/6JJcl mice. The experiment in a line: Oral Glucose Tolerance Test (OGTT). Format: in vivo. As for the experimental part:
After 30 minutes, a glucose solution was orally administered at a dose of 1 mg/g. Blood was collected from the orbits before the glucose administration and 30 minutes, 60 minutes and 120 minutes after the glucose administration. Blood-sugar levels were measured using ACCU-CHEK Aviva (Roche Diagnostics). In the drawings below, for example, “26,34Cys GLP-1-disialo”, which is an oligosaccharide chain added GLP-1 peptide wherein amino acids at positions 26 and 34 of GLP-1 are each substituted with disialo oligosaccharide chain added Cys, is referred to as “C26,C34”, if necessary. The same holds true for other oligosaccharide chains and amino acid sites.
Next, 18,36Cys GLP-1-disialo and GLP-1 were evaluated by OGTT using doses of 1/10 (0.9 nmol/kg) and 9 nmol/kg, respectively, and compared.

T1 sequence (P22411 whole entry): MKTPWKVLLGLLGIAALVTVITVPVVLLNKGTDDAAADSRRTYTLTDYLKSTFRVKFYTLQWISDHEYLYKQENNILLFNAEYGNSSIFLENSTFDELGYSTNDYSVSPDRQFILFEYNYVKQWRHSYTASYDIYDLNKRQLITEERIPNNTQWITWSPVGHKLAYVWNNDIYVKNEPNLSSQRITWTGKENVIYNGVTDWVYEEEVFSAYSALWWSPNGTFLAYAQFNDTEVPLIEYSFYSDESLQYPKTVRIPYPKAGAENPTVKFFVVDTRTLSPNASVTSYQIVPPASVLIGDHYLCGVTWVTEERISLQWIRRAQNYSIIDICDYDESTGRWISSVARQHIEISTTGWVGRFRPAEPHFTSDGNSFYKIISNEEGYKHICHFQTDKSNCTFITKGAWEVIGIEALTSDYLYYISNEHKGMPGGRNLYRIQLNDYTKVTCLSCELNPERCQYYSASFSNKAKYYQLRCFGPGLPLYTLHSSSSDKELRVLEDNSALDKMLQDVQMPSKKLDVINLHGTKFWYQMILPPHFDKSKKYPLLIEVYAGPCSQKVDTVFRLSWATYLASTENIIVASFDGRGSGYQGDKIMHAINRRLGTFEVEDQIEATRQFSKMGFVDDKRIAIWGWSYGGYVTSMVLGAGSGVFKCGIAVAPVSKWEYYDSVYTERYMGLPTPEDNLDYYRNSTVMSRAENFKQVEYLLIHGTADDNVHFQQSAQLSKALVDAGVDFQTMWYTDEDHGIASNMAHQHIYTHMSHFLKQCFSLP

On to `CC[C@H](C)[C@H](NC(=O)[C@H](Cc1ccccc1)NC(=O)[C@H](CCC(=O)O)NC(=O)[C@H](CCCCN)NC(=O)[C@H](C)NC(=O)[C@H](C)NC(=O)[C@H](CCC(N)=O)NC(=O)CNC(=O)[C@H](CCC(=O)O)NC(=O)[C@H](CC(C)C)NC(=O)[C@H](Cc1ccc(O)cc1)NC(=O)[C@H](CSCC(=O)N[C@@H]1O[C@H](CO)[C@@H](O[C@@H]2O[C@H](CO)[C@@H](O[C@@H]3O[C@H](CO[C@H]4O[C@H](CO)[C@@H](O)[C@H](O)[C@@H]4O[C@@H]4O[C@H](CO)[C@@H](O[C@@H]5O[C@H](CO[C@]6(C(=O)O)C[C@H](O)[C@@H](NC(C)=O)[C@H]([C@H](O)[C@H](O)CO)O6)[C@H](O)[C@H](O)[C@H]5O)[C@H](O)[C@H]4NC(C)=O)[C@@H](O)[C@H](O[C@H]4O[C@H](CO)[C@@H](O)[C@H](O)[C@@H]4O[C@@H]4O[C@H](CO)[C@@H](O[C@@H]5O[C@H](CO[C@]6(C(=O)O)C[C@H](O)[C@@H](NC(C)=O)[C@H]([C@H](O)[C@H](O)CO)O6)[C@H](O)[C@H](O)[C@H]5O)[C@H](O)[C@H]4NC(C)=O)[C@@H]3O)[C@H](O)[C@H]2NC(C)=O)[C@H](O)[C@H]1NC(C)=O)NC(=O)[C@H](CO)NC(=O)[C@@H](NC(=O)[C@H](CC(=O)O)NC(=O)[C@H](CO)NC(=O)[C@@H](NC(=O)[C@H](Cc1ccccc1)NC(=O)[C@@H](NC(=O)CNC(=O)[C@H](CCC(=O)O)NC(=O)[C@H](C)NC(=O)[C@@H](N)Cc1c[nH]cn1)[C@@H](C)O)[C@@H](C)O)C(C)C)C(=O)N[C@@H](C)C(=O)N[C@@H](Cc1c[nH]c2ccccc12)C(=O)N[C@@H](CC(C)C)C(=O)N[C@H](C(=O)N[C@@H](CCCCN)C(=O)NCC(=O)N[C@@H](CSCC(=O)N[C@@H]1O[C@H](CO)[C@@H](O[C@@H]2O[C@H](CO)[C@@H](O[C@@H]3O[C@H](CO[C@H]4O[C@H](CO)[C@@H](O)[C@H](O)[C@@H]4O[C@@H]4O[C@H](CO)[C@@H](O[C@@H]5O[C@H](CO[C@]6(C(=O)O)C[C@H](O)[C@@H](NC(C)=O)[C@H]([C@H](O)[C@H](O)CO)O6)[C@H](O)[C@H](O)[C@H]5O)[C@H](O)[C@H]4NC(C)=O)[C@@H](O)[C@H](O[C@H]4O[C@H](CO)[C@@H](O)[C@H](O)[C@@H]4O[C@@H]4O[C@H](CO)[C@@H](O[C@@H]5O[C@H](CO[C@]6(C(=O)O)C[C@H](O)[C@@H](NC(C)=O)[C@H]([C@H](O)[C@H](O)CO)O6)[C@H](O)[C@H](O)[C@H]5O)[C@H](O)[C@H]4NC(C)=O)[C@@H]3O)[C@H](O)[C@H]2NC(C)=O)[C@H](O)[C@H]1NC(C)=O)C(=O)NCC(=O)O)C(C)C` [Example 2, 18 and 36Cys-disialo oligosaccharide Chain Added GLP-1], for which the “Relative Resistance” value in data set [1] turned out to be 128.6. Also, in the data set with C57BL/6JJcl mice (0.9 nmol/kg intraperitoneal, compared with GLP-1 at 9 nmol/kg, FIG. 5), the “effect of suppressing rise in blood-sugar levels” value is on record as “almost equal effect of suppressing rise in blood-sugar levels to that of GLP-1”. For the same compound, the “effect of suppressing rise in blood-sugar levels relative to that of GLP-1” value in the data set on C57BL/6JJcl mice (OGTT, from doses giving almost equal effect (0.9 vs 9 nmol/kg)) was “about 10 times”.
